# Test results published in patent US20120282359A1, “Compositions, Kits, and Methods for the Treatment of Conditions Associated with Elevated Cholesterol Levels” (priority 2003, published 2012).
# Test system: humans having risk factors for atherosclerosis
# Assay: Example 4: double-blinded, randomized comparative study of treating elevated cholesterol levels
# Assay type: in vivo, human
# Settings: at eight weeks, versus baseline
# Description: A comparative study is executed to determine the effects of methods of treating elevated cholesterol levels comprising administration of each of: Test Sample 1, simvastatin (20 mg) in conjunction with fruit juice; Test Sample 2, simvastatin (10 mg) in conjunction with fruit juice; and Test Sample 3, simvastatin (10 mg) in conjunction with psyllium (15 grams) and fruit juice.
# The study is a double-blinded, randomized comparison. Sixty humans, aging from about 30 to about 80 years, are utilized for the study, all of which are determined as having risk factors for atherosclerosis. The humans are randomized to three treatment groups (Treatment Group 1, Treatment Group 2, and Treatment Group 3). Each human stops any lipid-lowering treatment, and baseline lipid levels are obtained.
# Treatment Group 1 receives Test Sample 1; Treatment Group 2 receives Test Sample 2; and Treatment Group 3 receives Test Sample 3; all over an eight week period. Test Sample 1 is administered as a concurrent administration once daily. Test Sample 2 is administered as a concurrent administration once daily. For Test Sample 3, 15 grams of psyllium is divided over three daily doses, each with fruit juice, wherein the last administered dose per day is concurrently administered with the simvastatin.
# At eight weeks, levels of LDL-cholesterol, total cholesterol, and triglycerides are measured. Triglycerides are found not to be influenced based upon treatment group. However, on average, LDL-cholesterol and total cholesterol is decreased by approximately 29% in Treatment Group 1, LDL-cholesterol and total cholesterol is decreased by approximately 33% in Treatment Group 2, and LDL-cholesterol and total cholesterol is decreased by approximately 38% in Treatment Group 3.
SMILES,"LDL-cholesterol decreased, on average","total cholesterol decreased, on average"
"CCC(C)(C)C(=O)O[C@H]1C[C@@H](C)C=C2C=C[C@H](C)[C@H](CC[C@@H]3C[C@@H](O)CC(=O)O3)[C@H]21 [Test Sample 1, simvastatin]",approximately 29%,approximately 29%
"CCC(C)(C)C(=O)O[C@H]1C[C@@H](C)C=C2C=C[C@H](C)[C@H](CC[C@@H]3C[C@@H](O)CC(=O)O3)[C@H]21 [Test Sample 2, simvastatin]",approximately 33%,approximately 33%
